Active and inactive are the calls of the source.
Legend:
[1] = biological target: COUP transcription factor 2 (Homo sapiens, UniProt P24468); test: Luminescence-based cell-based high throughput dose response assay to identify inhibitors of COUP-TFII (NR2F2).; type: functional;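 further: HEK293 cells transiently cotransfected with COUP-TFII expression vector and reporter; luciferase reporter luminescence driven by COUP-TFII from the pX2-168 reporter plasmid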
[2] = control 3'UTR Renilla luciferase suppression, dose response, counter-screen for Shn3 inhibitor project, cell-based, Clone20-Shn3RL, cherry-picked (AID 624133); type: functional
Galanin receptor type 3 = biological target: T1, Galanin receptor type 3 (Homo sapiens, UniProt O60755); test: Fluorescence-based cell-based primary high throughput dose response assay to identify antagonists of the Galanin Receptor 3 (GalR3).; type: functional
T1 sequence (O60755 whole entry): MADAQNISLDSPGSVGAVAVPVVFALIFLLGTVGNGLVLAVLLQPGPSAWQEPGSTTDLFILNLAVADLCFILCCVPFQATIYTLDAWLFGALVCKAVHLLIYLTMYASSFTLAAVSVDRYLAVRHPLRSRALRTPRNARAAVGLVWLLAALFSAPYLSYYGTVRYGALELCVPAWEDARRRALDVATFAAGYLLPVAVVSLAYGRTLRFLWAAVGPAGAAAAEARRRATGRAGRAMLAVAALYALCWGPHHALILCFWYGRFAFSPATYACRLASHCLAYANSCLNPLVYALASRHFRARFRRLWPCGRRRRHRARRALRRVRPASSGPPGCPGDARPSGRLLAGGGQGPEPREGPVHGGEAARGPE

[3] = HepG2 cell cytotoxicity, dose response, cytotoxicity control for Shn3 inhibitor project, CellTiter-Glo, cherry-picked (AID 624134); type: functional, cell-based
[4] = Shn3 3'UTR reporter inhibitors, dose response, cell-based, Clone20 osteoblasts, firefly luciferase, cherry-picked (AID 624132); type: functional;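 further: firefly luciferase luminescence from reporter carrying the Shn3 3'UTR in osteoblasts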
cells [5] = type: functional, cell-based; conditions: HEK-CNG
Protein Wnt-3a = Protein Wnt-3a (Mus musculus, UniProt P27467); test: Wnt3a-driven reporter signaling inhibition, dose response, selectivity assay for Gli-SUFU antagonist project, Wnt-LIGHT cells, luminescence (AID 651570); type: functional; conditions: read-out: IC50_Mean;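 further: Wnt-LIGHT reporter cells stimulated with conditioned medium from Wnt3a-producing cells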
[6] = Artemis endonuclease inhibitor potency, dose response, biochemical, fluorescence intensity (AID 720701); type: functional;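 further: Artemis endonuclease enzyme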
[7] = biological target: Peroxisome proliferator-activated receptor gamma/Nuclear receptor coactivator 1 (Homo sapiens, UniProt P37231); test: TR-FRET dose response biochemical High Throughput Screening assay for agonists of the steroid receptor coactivator 1 (SRC-1) recruitment by the peroxisome proliferator-activated receptor gamma (PPAR gamma): non-selective agonists. [Related pubchem assays (depositor defined):AID1300, AID1808, AID504735, AID631]; type: protein assay
Major prion protein = Major prion protein (Homo sapiens, UniProt P04156); type: functional, cell-based
[8] = biological target: Peroxisome proliferator-activated receptor gamma/Nuclear receptor coactivator 2 (Homo sapiens, UniProt P37231); test: (§1) TR-FRET dose response biochemical High Throughput Screening assay for agonists of the steroid receptor coactivator 2 (SRC-2) recruitment by the peroxisome proliferator-activated receptor gamma (PPAR gamma): non-selective agonists. [Related pubchem assays: 1297, 1032 ]; type: functional
[9] = biological target: Peroxisome proliferator-activated receptor gamma/Nuclear receptor coactivator 3 (Homo sapiens, UniProt P37231); test: as §1, with “3 (SRC-3)” for “2 (SRC-2)”, “1301 (Confirmation screen.), 1048 (Primary screen.)]” for “1297, 1032 ]”; type: functional
cells [10] = conditions: A549
[11] = HepG2 cell cytotoxicity, dose response, cytotoxicity control, ATP luminescence, cherry-pick, set 6 (AID 1053125); type: functional, cell-based
[12] = off-target signal loss in HeLa-CEM21 co-culture – HeLa F-luc CTL cells, cherry-picked, counter-screen for HIV-1 Env fusion inhibitor project, dose response (AID 652040); type: functional, cell-based;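 further: potency for signal decrease marking cytotoxic or nonspecific inhibition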
[13] = ZM109 Env clade C HIV-1 fusion inhibitors, dose response, HeLa effector, CEM target cells, luciferase, cherry-pick (AID 652058); type: functional, cell-based
[14] = inhibitors of clade B AD8 Env fusion, dose response, cell-based, cherry-pick (AID 652062); type: functional;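 further: luciferase signal from cell-cell fusion driven by HIV-1 clade B AD8 Env; potency is for inhibitors of fusion seen as a drop in luminescence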
cells [15] = test: cells
[16] = P. falciparum Dd2 growth inhibitors, dose response, SYBR Green, cherry-picked samples (AID 1159567); type: functional, cell-based
[17] = MC4R antagonists, dose response, counter-screen for LGR2 antagonist project, cell-based, plate reader, cherry pick (AID 743444); type: functional;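 further: transfected HEK 293 cells stimulated with alpha-MSH peptide; potency of inhibitors of the alpha-MSH evoked signal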
Paired box protein Pax-8 = Paired box protein Pax-8 (Homo sapiens, UniProt Q06710); test: inhibitors of PAX8-driven TPO luciferase reporter, dose response, RMG-I cells, cherry-pick (AID 687027); type: functional, cell-based;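 further: luciferase reporter driven by Pax8 target thyroperoxidase promoter measured by SteadyGlo luminescence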
[18] = A549 cell cytotoxicity, dose response, cytotoxicity control, plate reader, cherry-pick, antagonist series (AID 743412); type: functional, cell-based
[19] = NIH:OVCAR-3 ovarian cancer cell cytotoxicity, dose response, PAX8 inhibitor project, plate reader, dry powder samples (AID 743044); type: functional, cell-based
[20] = HEK293 cell cytotoxicity, dose response, cytotoxicity control, plate reader, cherry-picked samples (AID 743446); type: functional, cell-based
[21] = P. falciparum Dd2 growth inhibitors, dose response, SYBR Green, dry powder samples (AID 1159566); type: functional, cell-based;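 further: potency for growth inhibition with lower SYBR green DNA signal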
[22] = P. falciparum 3D7-ScDHODH growth inhibitors, dose response, SYBR Green, dry powder samples (AID 1159570); type: functional, cell-based;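 further: parasite growth measured after 72 hours of compound exposure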
[23] = A2780 ovarian cancer cell cytotoxicity, dose response, cytotoxicity control, plate reader, dry powder samples (AID 743046); type: functional, cell-based
[24] = P. falciparum ATP4 D1247Y mutant growth inhibitors, dose response, NITD609-resistant line, SYBR Green, dry powder (AID 1159571); type: functional, cell-based;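 further: parasites synchronized at ring stage by sorbitol before testing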
[25] = LGR2 antagonists, dose response, cell-based, HEK293, CRE-luciferase reporter, cherry pick, set 2 (AID 743343); type: functional;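 further: transfected cells were stimulated with diluted bursicon conditioned medium after compound addition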
[26] = IOSE-T80 ovarian epithelial cell cytotoxicity, dose response, cytotoxicity control for PAX8 inhibitor project, plate reader, dry powder samples (AID 743045); type: functional, cell-based
[27] = IGROV1 ovarian cancer cell cytotoxicity, dose response, PAX8 inhibitor project, plate reader, dry powder samples (AID 743043); type: functional, cell-based; conditions: IGROV-1
[28] = HepG2 cell cytotoxicity, dose response, cytotoxicity control, plate reader, cherry-pick, antagonist series (AID 743416); type: functional, cell-based
[29] = HepG2 cell cytotoxicity, dose response, cytotoxicity control, plate reader, dry powder samples (AID 1159569); type: functional, cell-based;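 further: inhibitor potency with signal falling toward the positive control level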
[30] = cytotoxicity in OVCAR8 ovarian cancer cells, dose response, PAX8 project, cell-based, plate reader, dry powder samples (AID 743197); type: functional; conditions: OVCAR-8
[31] = biological target: T2, Rac GTPase-activating protein 1 (Homo sapiens, UniProt Q9H0H5); test: MgcRacGAP GTPase-activating activity inhibitors, confirmation, biochemical, ADP Hunter fluorescence, primary and confirmatory (AID 624330); type: functional
T2 sequence (Q9H0H5 whole entry): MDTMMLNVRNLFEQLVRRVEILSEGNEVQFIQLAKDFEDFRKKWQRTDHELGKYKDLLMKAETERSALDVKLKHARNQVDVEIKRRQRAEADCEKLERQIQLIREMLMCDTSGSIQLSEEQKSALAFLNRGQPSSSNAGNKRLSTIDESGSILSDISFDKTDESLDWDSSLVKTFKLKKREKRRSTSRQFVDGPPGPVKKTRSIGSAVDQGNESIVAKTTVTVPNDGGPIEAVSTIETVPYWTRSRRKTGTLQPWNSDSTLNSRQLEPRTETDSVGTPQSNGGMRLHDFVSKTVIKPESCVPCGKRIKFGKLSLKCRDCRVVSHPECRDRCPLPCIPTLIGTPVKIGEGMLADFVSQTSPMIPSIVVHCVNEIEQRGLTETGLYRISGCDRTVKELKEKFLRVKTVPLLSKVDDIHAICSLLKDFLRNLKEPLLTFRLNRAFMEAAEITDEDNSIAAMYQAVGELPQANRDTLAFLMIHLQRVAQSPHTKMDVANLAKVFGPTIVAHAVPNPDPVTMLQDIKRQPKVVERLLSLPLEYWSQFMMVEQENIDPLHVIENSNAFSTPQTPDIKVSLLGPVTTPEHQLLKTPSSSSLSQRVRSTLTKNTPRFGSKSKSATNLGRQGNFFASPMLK

Protein Tat = Protein Tat (Human immunodeficiency virus type 1 group M subtype B (isolate HXB2)(HIV-1), UniProt P04608); type: functional;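 further: tat binding to TAR RNA read out by fluorescence polarization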
[32] = biological target: FAD-linked sulfhydryl oxidase ALR (Homo sapiens, UniProt P55789); test: inhibitors of human ALR sulfhydryl oxidase, dose response, biochemical, H2O2 detection, luminescence, cherry-pick (AID 493248)

Structure (SMILES): Cc1nn(C)c(C(=O)NCc2ccc(Cl)cc2)c1Cl
- IC50 [1]: 14 µM (inactive)
- AC50 [2]: 6.29 µM (active)
- IC50 (Galanin receptor type 3): 0.158 µM (active)
- AC50 [3]: 49.8 µM (active)
- AC50 [4]: 1.74 µM (active)
- EC50 (cells [5]): > 29.9 µM (inactive)
- IC50 (Protein Wnt-3a): 1.92 µM (active)

Structure (SMILES): CCOC(=O)C1CCCN(Cc2nc(N)nc(Nc3ccc(Cl)cc3)n2)C1 (stereo not given)
- IC50 [6]: > 20 µM (inactive)

Structure (SMILES): CNC(=O)NC(=O)CSc1nc(-c2cccs2)c(C#N)c(=O)[nH]1
- EC50 [7]: > 79.4 µM (inactive)
- IC50 (Major prion protein): 0.876 µM (active)
- EC50 [8]: > 79.4 µM (not active)
- EC50 [9]: > 79.4 µM (not active)

Structure (SMILES): CN(C)CCOCCOc1ccc(Cl)c2ccccc12
- AC50 (cells [10]): > 52 µM (inactive)
- AC50 [11]: > 52 µM (inactive)

Structure (SMILES): O=C(Nc1ccc(Oc2ccccc2)cc1)c1csc([C@H]2C[C@H](O)[C@@H](CO)O2)n1
- AC50 [12]: > 70 µM (inactive)
- IC50 [1]: 5.35 µM (active)
- AC50 [13]: 27.4 µM (active)
- IC50 (Galanin receptor type 3): 0.4 µM (active)
- EC50 (cells [5]): > 29.9 µM (inactive)
- AC50 [14]: 5.85 µM (active)

Structure (SMILES): CNC(=O)NC(=O)CSc1nc(O)c(C#N)c(-c2cccs2)n1
- IC50 (cells [15]): > 138 µM (inactive)

Structure (SMILES): O=C(C1CC1)N1C[C@@H]2N[C@H](C1)[C@@H]2c1ccc(-c2ccncc2)cc1
- AC50 [16]: 0.965 µM (active)
- AC50 [17]: 4.85 µM (active)
- AC50 (Paired box protein Pax-8): 2.98 µM (active)
- AC50 [18]: 2.89 µM (active)
- AC50 [19]: 13.2 µM (active)
- AC50 [20]: 24.5 µM (active)
- AC50 [21]: 0.555 µM (active)
- AC50 [22]: 0.629 µM (active)
- AC50 [23]: 12.7 µM (active)
- AC50 [24]: 0.974 µM (active)
- AC50 [25]: 5.41 µM (active)
- AC50 [26]: 12.2 µM (active)
- AC50 [27]: 13.1 µM (active)
- AC50 [28]: 21.4 µM (active)
- AC50 [29]: > 100 µM (inactive)
- AC50 [30]: 12.1 µM (active)

Structure (SMILES): CC(=O)N1CCN(c2ccc(NCc3ccc(F)cc3)cc2)CC1
- IC50 [31]: 12.9 µM (active)
- IC50 (Protein Tat): > 100 µM (inconclusive)
- AC50 [32]: 0.198 µM (active)

Source: ChEMBL document CHEMBL1201862, “PubChem BioAssay data set” (2004)
